Data as given in ChEMBL document CHEMBL1153803, “Parallel synthesis of chiral pentaamines and pyrrolidine containing bis-heterocyclic libraries. Multiple scaffolds with multiple building blocks: a double diversity for the identification of new antitubercular compounds” (Bioorg Med Chem Lett, 2009).
In brackets after ≈: the same amount, converted by molar mass.

Key:
[1] = system: Mycobacterium tuberculosis; experiment: Antimicrobial activity against Mycobacterium tuberculosis H37Rv ATCC 27294 by microplate Almar blue assay; type: functional
[2] = system: Vero; experiment: Cytotoxicity against african green monkey Vero cells at after 72 hrs by MTT assay; type: cell-based, Chlorocebus sabaeus
[3] = system: Mycobacterium tuberculosis; experiment: Antimicrobial activity against Mycobacterium tuberculosis H37Rv ATCC 27294 at 6.25 ug/mL by broth microdilution assay; type: functional
[4] = Selective index, the ratio of IC50 in the african green monkey Vero cells to the MIC to Mycobacterium tuberculosis H37Rv ATCC 27294; type: functional
[5] = Mycobacterium tuberculosis, H37Rv ATCC 27294, read-out: MIC
[6] = Chlorocebus sabaeus, Vero, 72 h, read-out: IC50

Structure (SMILES)	MIC [1, 5] [µg/mL]	IC50 [2, 6] [µg/mL]	inhibition at 6.25 µg/mL [3] [%]	MIC [1] [µg/mL]	IC50 ([2]; vero) [µg/mL]	Selectivity Index [4]
NC[C@H](Cc1ccccc1)NC[C@@H]1CCCN1C[C@H](Cc1ccccc1)NC[C@H](Cc1ccccc1)NCCC12CC3CC(CC(C3)C1)C2	3.13 (≈ 4.73 µM)	1.1 (≈ 1.66 µM)				
NC[C@H](Cc1ccc2ccccc2c1)NC[C@@H]1CCCN1C[C@H](Cc1ccccc1)NC[C@H](Cc1ccccc1)NCCc1ccccc1	6.25 (≈ 9.56 µM)	4.23 (≈ 6.47 µM)				
CC1CCC(CN2CCN([C@@H](Cc3ccccc3)CN3CCCC3CN3CCNC[C@@H]3Cc3ccccc3)C[C@@H]2Cc2ccccc2)CC1 (stereo partly drawn)	6.25 (≈ 9.44 µM)	1.39 (≈ 2.1 µM)	99	3.9 (≈ 5.89 µM)	0.82 (≈ 1.24 µM)	0.21
NC[C@H](Cc1ccccc1)NC[C@@H]1CCCN1C[C@H](Cc1ccccc1)NC[C@H](Cc1ccccc1)NCC12CC3CC(CC(C3)C1)C2	6.25 (≈ 9.65 µM)					
NC[C@H](Cc1ccccc1)NC[C@@H]1CCCN1C[C@H](Cc1ccccc1)NC[C@H](Cc1ccccc1)NCC1CCCC1	6.25 (≈ 10.7 µM)					
NC[C@H](Cc1ccccc1)NC[C@@H]1CCCN1C[C@H](Cc1ccccc1)NC[C@H](Cc1ccccc1)NCCCC1CCCC1	6.25 (≈ 10.2 µM)					
NC[C@H](Cc1ccccc1)NC[C@@H]1CCCN1C[C@H](Cc1ccccc1)NC[C@H](Cc1ccccc1)NCCC1CCCCC1	6.25 (≈ 10.2 µM)	1.05 (≈ 1.72 µM)				
CCCCCCCN[C@H](CN[C@@H](Cc1ccccc1)CN1CCC[C@H]1CN[C@H](CN)Cc1ccccc1)Cc1ccccc1	> 6.25					
NC[C@H](Cc1ccccc1)NC[C@@H]1CCCN1C[C@H](Cc1ccccc1)NC[C@H](Cc1ccccc1)NCCc1ccc(-c2ccccc2)cc1	> 6.25					
c1ccc(C[C@H]2CNCCN2C[C@@H]2CCCN2C[C@H](Cc2ccccc2)N2CCN(CC34CC5CC(CC(C5)C3)C4)[C@@H](Cc3ccccc3)C2)cc1	3.9 (≈ 5.57 µM)		99			
S=C1NC[C@H](Cc2ccccc2)N1C[C@@H]1CCCN1C[C@H](Cc1ccccc1)N1C[C@H](Cc2ccccc2)N(CC23CC4CC(CC(C4)C2)C3)C1=S	6.25 (≈ 8.54 µM)		98			
N=C1NC[C@H](Cc2ccccc2)N1C[C@@H]1CCCN1C[C@H](Cc1ccccc1)N1C[C@H](Cc2ccccc2)N(CC23CC4CC(CC(C4)C2)C3)C1=N	3.9 (≈ 5.59 µM)		91			
N=C1NC[C@H](Cc2ccccc2)N1CC1CCCN1C[C@H](Cc1ccccc1)N1C[C@H](Cc2ccccc2)N(CC2CCCCCC2)C1=N (stereo partly drawn)	3.9 (≈ 5.91 µM)	39.5 (≈ 59.8 µM)	92			10.1
N=C1NC[C@H](Cc2ccccc2)N1CC1CCCN1C[C@H](Cc1ccccc1)N1C[C@H](Cc2ccccc2)N(CCc2ccc(Cl)c(Cl)c2)C1=N (stereo partly drawn)	3.9 (≈ 5.4 µM)	24.5 (≈ 33.9 µM)	95			6.3
CCC(C)CN1C(=N)N([C@@H](Cc2ccccc2)CN2CCCC2CN2C(=N)NC[C@@H]2Cc2ccccc2)C[C@@H]1Cc1ccccc1 (stereo partly drawn)	7.8 (≈ 12.6 µM)	36.8 (≈ 59.3 µM)	90			4.7
N=C1NC[C@H](Cc2ccccc2)N1CC1CCCN1C[C@H](Cc1ccccc1)N1C[C@H](Cc2ccccc2)N(CC2CCCC2)C1=N (stereo partly drawn)	7.8 (≈ 12.3 µM)	33.5 (≈ 53.1 µM)	93			4.3
CC(C)CCCN1C(=N)N([C@@H](Cc2ccccc2)CN2CCCC2CN2C(=N)NC[C@@H]2Cc2ccccc2)C[C@@H]1Cc1ccccc1 (stereo partly drawn)	7.8 (≈ 12.3 µM)	31 (≈ 48.9 µM)	93			3.97

Structure (SMILES)	MIC [1, 5] [µg/mL]	IC50 [2, 6] [µg/mL]	inhibition at 6.25 µg/mL [3] [%]	MIC [1] [µg/mL]	IC50 ([2]; vero) [µg/mL]	Selectivity Index [4]
N=C1NC[C@H](Cc2ccccc2)N1CC1CCCN1C[C@H](Cc1ccccc1)N1C[C@H](Cc2ccccc2)N(CCC23CC4CC(CC(C4)C2)C3)C1=N (stereo partly drawn)	3.9 (≈ 5.48 µM)	14.5 (≈ 20.3 µM)	91			3.7
N=C1NC[C@H](Cc2ccccc2)N1CC1CCCN1C[C@H](Cc1ccccc1)N1C[C@H](Cc2ccccc2)N(CCCCC2CCCCC2)C1=N (stereo partly drawn)	3.9 (≈ 5.67 µM)	14.3 (≈ 20.8 µM)	91			3.7
N=C1NC[C@H](Cc2ccccc2)N1CC1CCCN1C[C@H](Cc1ccccc1)N1C[C@H](Cc2ccccc2)N(CCC2CCCCC2)C1=N (stereo partly drawn)	3.9 (≈ 5.91 µM)	13.9 (≈ 21.1 µM)	94			3.8
N=C1NC[C@H](Cc2ccccc2)N1CC1CCCN1C[C@H](Cc1ccccc1)N1C[C@H](Cc2ccccc2)N(CCC2CC3CCC2C3)C1=N (stereo partly drawn)	7.8 (≈ 11.6 µM)	15.5 (≈ 23 µM)	94			1.98
CC(C)(C)C1CCC(CN2C(=N)N([C@@H](Cc3ccccc3)CN3CCCC3CN3C(=N)NC[C@@H]3Cc3ccccc3)C[C@@H]2Cc2ccccc2)CC1 (stereo partly drawn)	7.8 (≈ 11.1 µM)	15.2 (≈ 21.7 µM)	94			1.95
S=C1NC[C@H](Cc2ccccc2)N1CC1CCCN1C[C@H](Cc1ccccc1)N1C[C@H](Cc2ccccc2)N(CC2CCCCC2)C1=S (stereo partly drawn)	3.9 (≈ 5.73 µM)	8.47 (≈ 12.5 µM)	97			2.2
CC(C)[C@H]1CNC(=S)N1CC1CCCN1C[C@H](Cc1ccccc1)N1C[C@H](Cc2ccccc2)N(CCc2ccccc2)C1=S (stereo partly drawn)			90			
c1ccc(CCN2CCN([C@@H](CC3CCCCC3)CN3CCCC3CN3CCNC[C@@H]3Cc3ccccc3)C[C@@H]2Cc2ccccc2)cc1 (stereo partly drawn)	2 (≈ 3.02 µM)	0.99 (≈ 1.5 µM)	100			0.5
c1ccc(C[C@H]2CNCCN2CC2CCCN2C[C@H](Cc2ccccc2)N2CCN(CCCCC3CCCCC3)[C@@H](Cc3ccccc3)C2)cc1 (stereo partly drawn)	2 (≈ 2.9 µM)	1 (≈ 1.45 µM)	99			0.5
c1ccc(C[C@H]2CNCCN2CC2CCCN2C[C@H](Cc2ccccc2)N2CCN(CC34CC5CC(CC(C5)C3)C4)[C@@H](Cc3ccccc3)C2)cc1 (stereo partly drawn)	2 (≈ 2.86 µM)	0.97 (≈ 1.39 µM)	97			0.49
c1ccc(C[C@H]2CNCCN2CC2CCCN2C[C@H](Cc2ccccc2)N2CCN(CCCC3CCCCC3)[C@@H](Cc3ccccc3)C2)cc1 (stereo partly drawn)	2 (≈ 2.96 µM)	0.94 (≈ 1.39 µM)	99			0.47
CC(C)CCCN1CCN([C@@H](Cc2ccccc2)CN2CCCC2CN2CCNC[C@@H]2Cc2ccccc2)C[C@@H]1Cc1ccccc1 (stereo partly drawn)	2 (≈ 3.14 µM)	0.89 (≈ 1.4 µM)	99			0.45
NC[C@H](Cc1ccccc1)NC[C@@H]1CCCN1C[C@H](Cc1ccccc1)NC[C@H](Cc1ccccc1)NCCCC1CCCCC1	3.13 (≈ 5.02 µM)		99			
CCC(C)CCN1C(=N)N([C@@H](Cc2ccccc2)CN2CCCC2CN2C(=N)NC[C@@H]2Cc2ccccc2)C[C@@H]1Cc1ccccc1 (stereo partly drawn)	7.8 (≈ 12.3 µM)	32.3 (≈ 50.9 µM)	91			4.1
CC(C)(C)C1CCC(CN2CCN([C@@H](Cc3ccccc3)CN3CCCC3CN3CCNC[C@@H]3Cc3ccccc3)C[C@@H]2Cc2ccccc2)CC1 (stereo partly drawn)	2 (≈ 2.84 µM)	1.15 (≈ 1.63 µM)	97			0.58
OCC(CN1CCN([C@@H](Cc2ccccc2)CN2CCCC2CN2CCNC[C@@H]2Cc2ccccc2)C[C@@H]1Cc1ccccc1)c1ccccc1 (stereo partly drawn)	20 (≈ 29.2 µM)	1.08 (≈ 1.57 µM)	99			
NC[C@H](Cc1ccccc1)NC[C@@H]1CCCN1C[C@H](Cc1ccccc1)NC[C@H](Cc1ccccc1)NCCC1CC2CCC1C2 (stereo partly drawn)	3.13 (≈ 5.03 µM)	1.03 (≈ 1.66 µM)				
